The target of one test is human EB1. As to conditions: read-out: Kd with human EB1, ref Honnappa et al. 2005; cited from earlier work.
A further test concerns the target T1, MBP-fused Drosophila EB1 (Drosophila, UniProt Q9XZ57 1-290).
T1 sequence (looked up): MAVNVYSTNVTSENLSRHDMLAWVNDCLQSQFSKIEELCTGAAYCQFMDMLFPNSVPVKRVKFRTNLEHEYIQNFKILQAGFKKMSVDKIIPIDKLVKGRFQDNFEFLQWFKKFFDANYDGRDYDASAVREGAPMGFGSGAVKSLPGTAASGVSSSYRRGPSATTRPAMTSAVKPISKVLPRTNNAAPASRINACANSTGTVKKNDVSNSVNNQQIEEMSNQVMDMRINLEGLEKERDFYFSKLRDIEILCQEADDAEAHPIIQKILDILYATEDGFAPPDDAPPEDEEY
In words: ITC.

As a reminder, the Kd is the concentration at which binding is half-saturated.

For “adenomatous polyposis coli protein: native human EB1-interacting protein”, the Kd at human EB1 was roughly 5 µM.

RTRGRSRIPRWVGRRG [aptamer Perfect peptide] yielded a Kd with MBP-fused Drosophila EB1 of roughly 570 nM.

Source of the values: PMC3967968 (Molecular Biology of the Cell, 2014).
